Results on 5 molecules are retold here after ChEMBL document CHEMBL3045793, “The synthesis, anti-inflammatory and antimicrobial activity evaluation of novel thioanalogs of 3,4-dihydrothiopyrimidin-2(1H)-one derivatives of N-aryl urea” (2012).

The subject of one experiment is Aspergillus flavus. In words: Antifungal activity against Aspergillus flavus up to 200 ug/ml by agar well diffusion method. In kind it is functional, organism-based. Background: In agar diffusion tests the substance spreads into inoculated agar from a disc or well.
In experiment [1] the test system is Fusarium solani. As to the kind of experiment: Antifungal activity against Fusarium solani up to 200 ug/ml by agar well diffusion method. In kind it is functional, organism-based.
A further experiment deals with Aspergillus niger. As to the kind of experiment: Antifungal activity against Aspergillus niger up to 200 ug/ml by agar well diffusion method. In kind it is functional, organism-based.
The test system of experiment [2] is Candida albicans. In words: Antifungal activity against Candida albicans up to 200 ug/ml by agar well diffusion method. In kind it is functional, organism-based.
The subject of a further experiment is Salmonella typhimurium. In words: Antibacterial activity against Salmonella enterica subsp. enterica serovar Typhimurium up to 200 ug/ml by agar well diffusion method. In kind it is functional, organism-based.
Another experiment has as its system Escherichia coli. As to the kind of experiment: Antibacterial activity against Escherichia coli up to 200 ug/ml by agar well diffusion method. In kind it is functional, organism-based.
In a further experiment the test system is Bacillus subtilis. As to the kind of experiment: Antibacterial activity against Bacillus subtilis up to 200 ug/ml by agar well diffusion method. In kind it is functional, organism-based.
The subject of experiment [3] is Staphylococcus aureus. In words: Antibacterial activity against Staphylococcus aureus up to 200 ug/ml by agar well diffusion method. In kind it is functional, organism-based.
Experiment [4] deals with THP-1. As to the kind of experiment: Anti-inflammatory activity in Homo sapiens (human) THP1 cells assessed as inhibition of LPS-induced IL-6 production preincubated at 10 uM for 30 min before LPS treatment measured after 24 hr by ELISA. In kind it is functional. On the technique in general: An ELISA detects its analyte on a solid surface through an enzyme-linked reagent.

In experiment [5] the test system is THP-1. As to the kind of experiment: Anti-inflammatory activity in Homo sapiens (human) THP1 cells assessed as inhibition of LPS-induced TNF-alpha production preincubated at 10 uM for 30 min before LPS treatment measured after 24 hr by ELISA. In kind it is functional.
The subject of experiment [6] is Fusarium solani. In words: Antifungal activity against Fusarium solani by agar well diffusion method. In kind it is functional.
Experiment [7] concerns Staphylococcus aureus. As to the kind of experiment: Antibacterial activity against Staphylococcus aureus by agar well diffusion method. In kind it is functional.
For experiment [8], the system named is THP-1. As to the kind of experiment: Anti-inflammatory activity in Homo sapiens (human) THP1 cells assessed as inhibition of LPS-induced IL-6 production preincubated at 1 uM for 30 min before LPS treatment measured after 24 hr by ELISA. In kind it is functional.
Experiment [9] deals with THP-1. In words: Anti-inflammatory activity in Homo sapiens (human) THP1 cells assessed as inhibition of LPS-induced TNF-alpha production preincubated at 1 uM for 30 min before LPS treatment measured after 24 hr by ELISA. In kind it is functional.
Experiment [10] deals with Candida albicans. In words: Antifungal activity against Candida albicans by agar well diffusion method. In kind it is functional.

Each structure is given as a SMILES string. In brackets after ≈: the same amount, converted by molar mass. Activity calls are given as the source filed them. No cut-off for these calls is given here.

Turning to `CCCCc1ccc(NC(=S)Nc2ccc(C3NC(=S)NC(C)=C3C(=O)OCC)cc2)cc1` (configuration not stated), the outcome in the experiment on Aspergillus flavus, in the experiment with Fusarium solani [1], with Aspergillus niger, in the experiment on Candida albicans [2], with Salmonella typhimurium and in the experiment with Escherichia coli was inactive. The outcome in the experiment with Bacillus subtilis and with Staphylococcus aureus [3] was inactive. Besides, the values for the inhibition at 10 µM in the experiment with THP-1 [4] and with THP-1 [5] were 8% and 0%, respectively.

Take `CCOC(=O)C1=C(C)NC(=S)NC1c1ccc(NC(=S)Nc2ccc(C)c(C)c2)cc1` (configuration not stated): the result in the experiment with Aspergillus flavus, with Fusarium solani [1], with Aspergillus niger, with Candida albicans [2], with Salmonella typhimurium and with Escherichia coli was inactive. The result in the experiment on Bacillus subtilis and with Staphylococcus aureus [3] was inactive. The inhibition (commonly the change of the read-out against control, counted positive when it falls) at 10 µM in the experiment on THP-1 [4] was 8%; in the experiment with THP-1 [5], 0%.

Take `CCOC(=O)C1=C(C)NC(=S)NC1c1ccc(NC(=S)Nc2ccc(F)c(Cl)c2)cc1` (configuration not stated): the outcome in the experiment on Aspergillus flavus, in the experiment with Aspergillus niger, in the experiment with Candida albicans [2], in the experiment with Salmonella typhimurium, with Escherichia coli and in the experiment on Bacillus subtilis was inactive. The figures for the minimal inhibitory concentration (MIC) in the experiment with Fusarium solani [6] and against Staphylococcus aureus [7] were 95 µg/mL (≈ 198 µM) and 80 µg/mL (≈ 167 µM), respectively. For the same molecule, the results for the inhibition at 10 µM in the experiment with THP-1 [4] and with THP-1 [5] were 58% and 0%, respectively.

With `C[C@@H]1C[C@H]2[C@@H]3CCC4=CC(=O)C=C[C@]4(C)[C@@]3(F)[C@@H](O)C[C@]2(C)[C@@]1(O)C(=O)CO` [DEXAMETHASONE], the inhibition at 1 µM in the experiment on THP-1 [8] was determined as 84%; in the experiment with THP-1 [9], 71%.

On to `CCOC(=O)C1=C(C)NC(=S)NC1c1ccc(NC(=S)Nc2ccc(F)c(C)c2)cc1` (configuration not stated), for which the outcome in the experiment on Aspergillus flavus, in the experiment on Aspergillus niger, in the experiment with Salmonella typhimurium, with Escherichia coli and with Bacillus subtilis was inactive. For the same molecule, the MIC (commonly the least concentration at which growth counts as inhibited) against Fusarium solani [6] was found to be 95 µg/mL (≈ 207 µM); in the experiment with Candida albicans [10], 95 µg/mL (≈ 207 µM); against Staphylococcus aureus [7] it was 80 µg/mL (≈ 174 µM). Further, the results for the inhibition at 10 µM in the experiment with THP-1 [4] and in the experiment on THP-1 [5] were 27% and 0%, respectively.
